According to US5932574A, “Quinazoline derivatives” (Zeneca Limited, priority 1995, dated 1999):
pIC50: −log10 of the molar value.

Columns and labels:
[1] = test system: human vulval epidermoid carcinoma cell line A-431; experiment: Inhibition of growth of A-431 xenografts in athymic nude mice, Test (c); assay type: in vivo, human xenograft in athymic nude mice (strain ONU:Alpk); settings: daily dose of 50 mg/kg, usually oral, relative to untreated controls
Experimental: (c) An in-vivo assay in a group of athymic nude mice (strain ONU:Alpk) which determines the ability of a test compound (usually administered orally as a ball-milled suspension in 0.5% polysorbate) to inhibit the growth of xenografts of the human vulval epidermoid carcinoma cell line A-431. A-431 cells were maintained in culture in DMEM supplemented with 5% FCS and 2 mM glutamine. Freshly cultured cells were harvested by trypsinization and injected subcutaneously (10 million cells/0.1 ml/mouse) into both flanks of a number of donor nude mice. When sufficient tumour material was available (after approximately 9 to 14 days), fragments of tumour tissue were transplanted in the flanks of recipient nude mice (test day 0). Generally, on the seventh day after transplantation (test day 7) groups of 7 to 10 mice with similar-sized tumours were selected and dosing of the test compound was commenced. Once daily dosing of test compound was continued for a total of 13 days (test days 7 to 19 inclusive). In some studies the dosing of the test compound was continued beyond test day 19, for example to test day 26. In each case, on the following test day the animals were killed and the final tumour volume was calculated from measurements of the length and width of the tumours. Results were calculated as a percentage inhibition of tumour volume relative to untreated controls.

[2] = test system: human naso-pharyngeal cancer cell line KB; experiment: Inhibition of EGF-stimulated growth of human naso-pharyngeal cancer cell line KB, Test (b); assay type: cell-based; settings: 72 h, EGF (10 ng/ml), 3 days, approximate
Experimental: (b) An in vitro assay which determines the ability of a test compound to inhibit the EGF-stimulated growth of the human naso-pharyngeal cancer cell line KB. […] Cell growth was determined after incubation for 3 days by the extent of metabolism of MTT tetrazolium dye to furnish a bluish colour. Cell growth was then determined in the presence of EGF (10 ng/ml) or in the presence of EGF (10 ng/ml) and a test compound at a range of concentrations. An IC50 value could then be calculated.

[3] = target: T1, EGF receptor tyrosine kinase (Homo sapiens, UniProt P00533); experiment: Inhibition of EGF receptor tyrosine kinase in vitro, Test (a); assay type: biochemical; settings: approximate
T1 construct: Receptor tyrosine kinase was obtained in partially purified form from A-431 cells (derived from human vulval carcinoma); endogenous in cells; host or cells: A-431 cells (Triton X-100 solubilised membrane fraction)
Experimental: (a) An in vitro assay which determines the ability of a test compound to inhibit the enzyme EGF receptor tyrosine kinase. Receptor tyrosine kinase was obtained in partially purified form from A-431 cells (derived from human vulval carcinoma) by the procedures described below which are related to those described by Carpenter et al., J. Biol. Chem., 1979, 254, 4884, Cohen et al., J. Biol. Chem., 1982, 257, 1523 and by Braun et al., J. Biol. Chem., 1984, 259, 2051.
A-431 cells were grown to confluence using Dulbecco's modified Eagle's medium (DMEM) containing 5% fetal calf serum (FCS). The obtained cells were homogenised in a hypotonic borate/EDTA buffer at pH 10.1. The homogenate was centrifuged at 400 g for 10 minutes at 0-4° C. The supernatant was centrifuged at 25,000 g for 30 minutes at 0-4° C. […]
The test compound/EGF mixture solution (5 μl) was added to the test enzyme solution (10 μl) and the mixture was incubated at 0-4° C. for 30 minutes. […] Radioactivity present in the filter paper was measured using a liquid scintillation counter (Sequence A). […]
Receptor tyrosine kinase inhibition was calculated as follows: [formula]
The extent of inhibition was then determined at a range of concentrations of test compound to give an IC50 value.

[4] = test system: human mammary carcinoma which expresses EGF receptor tyrosine kinase; settings: in words; athymic nude mice; Toi et al., 1990; cited from earlier work
[5] = test system: another carcinoma which does not express EGF receptor tyrosine kinase; settings: in words; Toi et al., 1990; cited from earlier work

T1 sequence (P00533 25-1210): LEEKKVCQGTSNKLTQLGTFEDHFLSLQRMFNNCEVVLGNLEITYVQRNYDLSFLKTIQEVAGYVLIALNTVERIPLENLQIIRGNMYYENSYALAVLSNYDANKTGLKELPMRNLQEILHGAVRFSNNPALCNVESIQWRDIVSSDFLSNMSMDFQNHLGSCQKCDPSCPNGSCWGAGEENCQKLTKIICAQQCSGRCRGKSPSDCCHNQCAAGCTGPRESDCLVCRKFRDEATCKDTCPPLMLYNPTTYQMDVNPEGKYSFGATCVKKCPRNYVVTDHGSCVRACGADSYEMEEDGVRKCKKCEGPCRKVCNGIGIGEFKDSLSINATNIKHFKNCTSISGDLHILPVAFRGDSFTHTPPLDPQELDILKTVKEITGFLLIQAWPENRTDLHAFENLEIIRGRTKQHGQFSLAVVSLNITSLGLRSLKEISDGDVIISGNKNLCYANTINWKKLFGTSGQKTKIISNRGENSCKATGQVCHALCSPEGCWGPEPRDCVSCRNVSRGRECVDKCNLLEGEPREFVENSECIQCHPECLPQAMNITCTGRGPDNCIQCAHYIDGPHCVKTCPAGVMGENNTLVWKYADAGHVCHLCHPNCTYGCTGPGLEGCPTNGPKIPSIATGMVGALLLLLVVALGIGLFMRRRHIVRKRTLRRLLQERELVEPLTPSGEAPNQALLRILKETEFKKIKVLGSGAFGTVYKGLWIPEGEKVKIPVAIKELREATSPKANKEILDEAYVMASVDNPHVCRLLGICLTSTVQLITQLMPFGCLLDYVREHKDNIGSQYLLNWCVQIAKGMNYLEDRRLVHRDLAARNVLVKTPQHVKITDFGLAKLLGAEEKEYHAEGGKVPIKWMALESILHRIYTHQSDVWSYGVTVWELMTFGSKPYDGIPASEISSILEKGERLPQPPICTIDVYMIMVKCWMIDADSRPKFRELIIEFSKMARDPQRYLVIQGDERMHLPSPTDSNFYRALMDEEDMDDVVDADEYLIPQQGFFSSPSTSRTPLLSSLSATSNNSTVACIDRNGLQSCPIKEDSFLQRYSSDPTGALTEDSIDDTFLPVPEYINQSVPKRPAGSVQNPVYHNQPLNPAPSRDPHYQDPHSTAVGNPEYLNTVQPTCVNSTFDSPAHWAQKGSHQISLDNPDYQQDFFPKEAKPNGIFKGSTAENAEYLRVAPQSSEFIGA

pIC50 [2]	pIC50 [3]	SMILES	inhibition of tumour volume [1]	growth of transplanted human mammary carcinoma [4]	growth of carcinoma not expressing EGF receptor tyrosine kinase [5]
~5.92		Fc1ccc(Nc2ncnc3ccc(OCCCN4CCOCC4)cc23)cc1F [4-(3',4'-difluoroanilino)-6-(3-morpholinopropoxy)quinazoline]	greater than 50%		
~7.00	~8.52	CCN(CC)CCCOc1ccc2ncnc(Nc3ccc(F)c(Cl)c3)c2c1 [4-(3'-chloro-4'-fluoroanilino)-6-(3-diethylaminopropoxy)quinazoline]	greater than 50%		
		O=CN/C=C/c1cc(O)ccc1O [erbstatin]		specifically attenuates the growth	without effect on the growth
